Common to all, as to format: in vivo
Experiment [1] relates to ticks (Ixodes scapularis). As to the kind of experiment: Tick Petri dish bioassay with treated sand (repellency and toxicity). Particulars: 2.75 mg/dish. The method, then:
To test the effectiveness of nootkatone against ticks, ticks (Ixodes scapularis) were collected from Idlewild, La. Nootkatone efficiacy was tested relative to a known repellent, N,N-diethyl-m-toluamide (“Deet”). REPEL®, which contains 27.55% Deet, was purchased locally from a retail garden store.
The bioassay was conducted using Petri dishes (5 cm diameter and 1 cm height). To ensure adequate moisture for the ticks, 1 ml of a hot agar solution (1.5% in H2O) was spread evenly on the inside surfaces of the Petri dish, including the top, bottom, and edges. After the agar cooled, sand that was treated as described below was spread evenly on the inside surfaces of the Petri dish. The sand was held in place by the agar.
For the treated sand, either 2 mg nootkatone or 100 mg REPEL® was initially dissolved in 2 ml ethanol, and then 200 μl of the solution was mixed with 2 g sand that had been autoclaved and cooled. The control was autoclaved sand with 200 μl ethanol only added. One half of the surfaces in the Petri dishes were covered with 2 g treated sand, and the other half with 2 g untreated sand. In the nootkatone-treated Petri dishes, the final concentration was 200 μg/dish; while in the Deet treated Petri dishes, the final concentration was 2.75 mg/dish. Control Petri dishes were prepared by covering all sides with untreated sand. One tick was added to each Petri dish, and the top replaced. The number of replicates were as follows: control, 6; nootkatone, 9; and Deet, 8. […] Repellent activity was noted if the tick was found on the untreated side of the Petri dish. The ticks in the control Petri dishes were randomly distributed on the left and right sides.
The above experiment was repeated with ticks (Ix. scapularis) collected from Hammond, La. The number of replicates in this experiment were as follows: controls, 8; nootkatone, 10; and Deet, 8.

The subject of experiment [2] is cat fleas (Ctenocephalides felis (Bouche)). As to the kind of experiment: Cat flea Petri dish filter paper bioassay (repellency and mortality). The note with it: 2.76 mg per dish. The method, then: To test the effectiveness of nootkatone against fleas, cat fleas (Ctenocephalides felis (Bouche)) were collected from a flea colony at St. Gabriel, La.
Petri dishes (5 cm diameter and 1 cm height) were prepared by lining one half of the top and the bottom with a half circle of filter paper (55 mm), and lining the other half with a second half circle of filter paper. For the treated Petri dishes, 50 mg nootkatone or 100 mg REPEL® were dissolved in 0.5 ml ethanol. […] Ten replicate Petri dishes were used for each of the treatments. The ethanol solution was added to the filter paper on the top and bottom and dried for 10 min. To place the fleas in the Petri dishes, fleas were temporarily immobilized by placing them at −20° C. for 5 min. The number of fleas in each Petri dish varied: for the 10 control Petri dishes, the average number in each dish was 10.2, with a range of 4 to 23; for 0.2 mg nootkatone, the average number in each dish was 8.5, with a range of 5 to 18; for 1 mg nootkatone, the average number in each dish was 10.6, with a range of 6 to 21; for 2 mg nootkatone, the average number in each dish was 11.1, with a range of 9 to 15 (Fleas could be counted in only 9 Petri dishes; one had too many fleas to count); and for 2.76 mg Deet, the average number in each dish was 6.7, with a range of 5 to 9.
The number of fleas on each side of each Petri dish was counted at 1 hr, 2 hr, 3 hr, 4 hr, 24 hr, 48 hr, 72 hr, and 96 hr.

The test system of experiment [3] is German cockroaches (Blattella germanica). As to the kind of experiment: German cockroach Petri dish filter paper bioassay (repellency and toxicity). The method, then:
To test the efficacy of nootkatone against cockroaches, German cockroaches (Blattella germanica) were collected at Baton Rouge, La., the same day as the bioassay was begun.
For the bioassay, Petri dishes (10 cm diameter×1 cm) were used. The Petri dishes were prepared by lining one half of the top and one half of the bottom with a half circle of filter paper (125 mm), and lining the other half with a second half circle of filter paper. For the treated Petri dishes, 50 mg nootkatone and 300 mg REPEL® were dissolved in 2.0 ml ethanol. To each Petri dish was added either ethanol only, 30 mg Deet, 1 mg nootkatone, or 10 mg nootkatone. Ten replicate Petri dishes were used for each of the treatments. The ethanol solution was added to the filter paper on the top and bottom and dried for 10 min. One cockroach was added to each Petri dish. The length of the cockroaches varied from 1 to 1.5 cm. The dishes were then observed at 15 min, 30 min, 1 hr, 2 hr, 3 hr, 4 hr, 5 hr, 24 hr, 48 hr, and 120 hr.

The mark [4] stands for this setting: 8 replicates, ticks from Hammond.

Structures are written as SMILES.

As for `CCN(CC)C(=O)c1cccc(C)c1` [Deet, N,N-diethyl-m-toluamide, reference compound], in experiment [1] (setting [4]), the “Petri dishes that lost the repellent activity after 96 hr” value is reported as “one”. Further, the “Ticks dead at 24 hr (number)” value in experiment [1] (setting [4]) is on record as “one”. In experiment [1] (setting [4]), the “Ticks dead at 72 hr (number)” value is “one”. Further, the “Ticks dead at 96 hr (number)” value in experiment [1] (setting [4]) is “four”. The “Petri dishes that had lost the repellent activity after 90 hr” value in experiment [1] (8 replicates, ticks from Idlewild) was “three”. For the same compound, the “Ticks dead at 96 hr (percent)” value in experiment [1] (ticks from Hammond) came out at 50%. Also, the “Ticks dead after 90 hr” value in experiment [1] (ticks from Idlewild) was “No ticks”. Besides, the “Overall activity against fleas” value in experiment [2] is “effective as both a repellent and a toxicant”. The “Repellent activity against fleas” value in experiment [2] (first observation (1 hr)) is recorded as “showed repellent activity”. Also, the “Repellent activity against the cockroaches” value in experiment [3] (30 mg per dish) is listed as “no significant repellent activity”. The “Percent Repellency” value is on record as 50% in experiment [3] (30 mg per dish, 30 min); 40% in experiment [3] (30 mg per dish, 1 hr); 70% in experiment [3] (30 mg per dish, 2 hr); 50% in experiment [3] (30 mg per dish, 3 hr); 60% in experiment [3] (30 mg per dish, 4 hr); 70% in experiment [3] (30 mg per dish, 5 hr). The “Percent Repellency” value is given as 38% in experiment [3] (30 mg per dish, 24 hr); 43% in experiment [3] (30 mg per dish, 48 hr); 50% in experiment [3] (30 mg per dish, 120 hr). For the same compound, in experiment [3] (any of the treatments (30 mg Deet; 1 mg or 10 mg nootkatone), up to 120 hr), the “Number of cockroach deaths compared with the control” value is given as “not significantly different from the control”.

These data come from US6906108B2, “Extracts of vetiver oil as repellent and toxicant to ants, ticks, and cockroaches” (Board of Supervisors of Louisiana State University and …, priority 2001, dated 2005).
